# Measurements reported in patent US8263613B2, “Salts, prodrugs and polymorphs of fab I inhibitors” (Affinium Pharmaceuticals, Inc., priority 2007, dated 2012).
# Read-outs that look alike come from different tables or passages of the source.
# Experiments:
# [1] = Pharmacokinetic study in male rats, single oral dose in 80% PEG400; conditions: rat, in vivo
# [2] = Oral pharmacokinetic study in male rats (oral gavage); type: in vivo, rat; conditions: for AUC(0-t) / Cmax: male, CD, rat, po
# Method: Compound A (free base) and B (toslyate monohydrate salt of compound A) was administered to male rats, strain CD®, via oral gavage using 1% Poloxamer 407 or 0.5% carboxymethyl cellulose (CMC) as the vehicle (Table 1). All doses were calculated as free base equivalents.
# For each dosing group blood was collected from 3 animals at each of the following time points: 0, 0.5, 1, 2, 4, 6, 8, 10, 12, 16, 24, and 48 hours post dose. Plasma was prepared using standard techniques with sodium heparin as anti-coagulant. The Compound A and B plasma concentrations were determined using a GLP-validated LC/MS/MS bioanalytical method. Pharmacokinetic analyses were performed using PK Solutions 2.0™ or WinNonLin 5.1.
# [3] = system: Staphylococcus aureus ATCC 29213; experiment: Mouse thigh abscess infection model; type: in vivo; conditions: for ED50: Staphylococcus aureus, ATCC29213; for ED50 / ED80 / Static dose: mice, oral, Inhibitory Effect Sigmoid Emax Model fit; for Average Change logCFU/thigh: neutropenic mice, 6 hours post dose, vs time 0 controls
# Method: Compound A (free base) unmilled, and the tosylate salt of Compound A milled were tested in the same mouse thigh abscess model following single oral doses in 0.5% carboxymethyl cellulose. Mice (6 per dosing group) were rendered neutropentic, and the thigh of each mouse was injected with 1×10^5 colony forming units (CFU) of Staphylococcus aureus ATCC 29213. Two hours post infection, mice were dosed with the drug orally, and at 6 hours post dose, bacterial viable counts where determined from the thighs of all the mice. Efficacy was calculated as the average change in CFU/thigh compared to time 0 (time of dosing) controls.
# [4] = Solubility in cyclodextrins; type: physicochemical; conditions: for solubility: aqueous with cosolvent or surfactant or cyclodextrin, thermodynamic from solid
# [5] = male, po, 30 mg/kg, single oral dose 30 mg/kg in 80% PEG400, particle state Milled
# [6] = male, po, 30 mg/kg, single oral dose 30 mg/kg in 80% PEG400, particle state Unmilled
# [7] = plasma, 10 mg/kg, 10 mg/kg (free base equivalents), 0.5% CMC
# [8] = plasma, 10 mg/kg, 10 mg/kg (free base equivalents), 1% Poloxamer 407
# [9] = plasma, 30 mg/kg, 30 mg/kg (free base equivalents), 0.5% CMC
# [10] = plasma, 75 mg/kg, 75 mg/kg (free base equivalents), 0.5% CMC
# [11] = single oral dose 0.3 mg/kg in 0.5% carboxymethyl cellulose
# [12] = single oral dose 1 mg/kg in 0.5% carboxymethyl cellulose
# [13] = single oral dose 3 mg/kg in 0.5% carboxymethyl cellulose
# [14] = single oral dose 10 mg/kg in 0.5% carboxymethyl cellulose
# [15] = single oral dose 30 mg/kg in 0.5% carboxymethyl cellulose
# [16] = single oral dose 30 mg/kg in 80% PEG400, particle state Unmilled
# [17] = in vivo, 10 mg/kg, 10 mg/kg (free base equivalents), 0.5% CMC
# [18] = in vivo, 10 mg/kg, 10 mg/kg (free base equivalents), 1% Poloxamer 407
# [19] = in vivo, 30 mg/kg, 30 mg/kg (free base equivalents), 0.5% CMC
# [20] = in vivo, 75 mg/kg, 75 mg/kg (free base equivalents), 0.5% CMC
structure (smiles),measurement,setting,value
"Cc1c(CN(C)C(=O)/C=C/c2cnc3c(c2)CCC(=O)N3)oc2ccccc12 [Free base, (E)-N-methyl-N-((3-methylbenzofuran-2-yl)methyl)-3-(7-oxo-5,6,7,8-tetrahydro-1,8-naphthyridin-3-yl)acrylamide]",AUC(0-inf),[1]; [5],6570 ng·h/mL
same,AUC(0-t),[1]; [5],6370 ng·h/mL
same,Cmax,[1]; [5],1970 ng/mL
same,half-life,[1]; [5],5.5 h
same,AUC(0-inf),[1]; [6],1260 ng·h/mL
same,AUC(0-t),[1]; [6],1160 ng·h/mL
same,Cmax,[1]; [6],421 ng/mL
same,half-life,[1]; [6],2 h
same,AUC(0-t),[2]; [7],980 ng·h/mL
same,Cmax,[2]; [7],163 ng/mL
same,AUC(0-t),[2]; [8],883 ng·h/mL
same,Cmax,[2]; [8],157 ng/mL
same,AUC(0-t),[2]; [9],1620 ng·h/mL
same,Cmax,[2]; [9],176 ng/mL
same,AUC(0-t),[2]; [10],2370 ng·h/mL
same,Cmax,[2]; [10],246 ng/mL
same,ED50,[3],4 mg/kg
same,ED80,[3],8.8 mg/kg
same,Static dose,[3],10.5 mg/kg
same,Average Change logCFU/thigh,[3]; [11],1.6 logCFU/thigh
same,Average Change logCFU/thigh,[3]; [12],1.35 logCFU/thigh
same,Average Change logCFU/thigh,[3]; [13],0.3 logCFU/thigh
same,Average Change logCFU/thigh,[3]; [14],0.36 logCFU/thigh
same,Average Change logCFU/thigh,[3]; [15],−0.29 logCFU/thigh
same,solubility,"[4]; 10% hydroxypropyl beta-cyclodextrin, cyclodextrin concentration 10%, shake-flask technique, read-out: Solubility in Hydroxypropyl Beta-Cyclodextrin",20 µg/mL
same,solubility,"[4]; 10% hydroxypropyl beta-cyclodextrin, cyclodextrin concentration 10%, evaporating an ethanol/water/DMA blend of cyclodextrin and API and reconstituting with water, read-out: Solubility in Hydroxypropyl Beta-Cyclodextrin",9 µg/mL
same,solubility,"[4]; 10% sulfobutyl ether beta-cyclodextrin, cyclodextrin concentration 10%, read-out: Solubility in Sulfobutyl Ether Beta-Cyclodextrin",7 µg/mL
"CS(=O)(=O)O.Cc1c(CN(C)C(=O)/C=C/c2cnc3c(c2)CCC(=O)N3)oc2ccccc12 [Mesylate, (E)-N-methyl-N-((3-methylbenzofuran-2-yl)methyl)-3-(7-oxo-5,6,7,8-tetrahydro-1,8-naphthyridin-3-yl)acrylamide methane sulfonate]",AUC(0-inf),[1]; [5],6040 ng·h/mL
same,AUC(0-t),[1]; [5],5770 ng·h/mL
same,Cmax,[1]; [5],884 ng/mL
same,half-life,[1]; [5],5 h
"Cc1c(CN(C)C(=O)/C=C/c2cnc3c(c2)CCC(=O)N3)oc2ccccc12.O=S(=O)(O)O [Sulfate, (E)-N-methyl-N-((3-methylbenzofuran-2-yl)methyl)-3-(7-oxo-5,6,7,8-tetrahydro-1,8-naphthyridin-3-yl)acrylamide sulfate]",AUC(0-inf),[1]; [16],9970 ng·h/mL
same,AUC(0-t),[1]; [16],9480 ng·h/mL
same,Cmax,[1]; [16],1940 ng/mL
same,half-life,[1]; [16],5.7 h
"Cc1c(CN(C)C(=O)/C=C/c2cnc3c(c2)CCC(=O)N3)oc2ccccc12.Cc1ccc(S(=O)(=O)O)cc1.O [Tosylate monohydrate milled, (E)-N-methyl-N-((3-methylbenzofuran-2-yl)methyl)-3-(7-oxo-5,6,7,8-tetrahydro-1,8-naphthyridin-3-yl)acrylamide Tosylate Monohydrate]",Ratio of tosylate monohyrate/free base AUClast,"[2]; 10 mg/kg, 0.5% CMC",2.1
same,Ratio of tosylate monohyrate/free base Cmax,"[2]; 10 mg/kg, 0.5% CMC",2.1
same,Ratio of tosylate monohyrate/free base AUClast,"[2]; 10 mg/kg, 1% Poloxamer 407",3.0
same,Ratio of tosylate monohyrate/free base Cmax,"[2]; 10 mg/kg, 1% Poloxamer 407",2.2
same,Ratio of tosylate monohyrate/free base AUClast,"[2]; 30 mg/kg, 0.5% CMC",2.3
same,Ratio of tosylate monohyrate/free base Cmax,"[2]; 30 mg/kg, 0.5% CMC",2.5
same,Ratio of tosylate monohyrate/free base AUClast,"[2]; 75 mg/kg, 0.5% CMC",1.8
same,Ratio of tosylate monohyrate/free base Cmax,"[2]; 75 mg/kg, 0.5% CMC",2.4
same,AUC(0-t),[2]; [17],2040 ng·h/mL
same,Cmax,[2]; [17],347 ng/mL
same,AUC(0-t),[2]; [18],2660 ng·h/mL
same,Cmax,[2]; [18],348 ng/mL
same,AUC(0-t),[2]; [19],3680 ng·h/mL
same,Cmax,[2]; [19],434 ng/mL
same,AUC(0-t),[2]; [20],4260 ng·h/mL
same,Cmax,[2]; [20],595 ng/mL
same,solubility,"[4]; cyclodextrin concentration 10%, read-out: Solubility in Hydroxypropyl Beta-Cyclodextrin",26 µg/mL
same,solubility,"[4]; cyclodextrin concentration 10%, read-out: Solubility in Sulfobutyl Ether Beta-Cyclodextrin",67 µg/mL
same,solubility,"[4]; cyclodextrin concentration 40%, read-out: Solubility in Hydroxypropyl Beta-Cyclodextrin",370 µg/mL
same,solubility,"[4]; cyclodextrin concentration 40%, read-out: Solubility in Sulfobutyl Ether Beta-Cyclodextrin",4000 µg/mL
same,Solubility relative to the free base milled form,"[4]; sulfobutyl ether beta-cyclodextrin, cyclodextrin concentration 10%",approximately 10 fold
"Cc1c(CN(C)C(=O)/C=C/c2cnc3c(c2)CCC(=O)N3)oc2ccccc12.Cc1ccc(S(=O)(=O)O)cc1 [Tosylate, (E)-N-methyl-N-((3-methylbenzofuran-2-yl)methyl)-3-(7-oxo-5,6,7,8-tetrahydro-1,8-naphthyridin-3-yl)acrylamide p-toluene sulfonate]",AUC(0-inf),[1]; [5],9510 ng·h/mL
same,AUC(0-t),[1]; [5],9460 ng·h/mL
same,Cmax,[1]; [5],1610 ng/mL
same,half-life,[1]; [5],3.5 h
same,ED50,[3],1.3 mg/kg
same,ED80,[3],3.4 mg/kg
same,Static dose,[3],2.4 mg/kg
same,Average Change logCFU/thigh,[3]; [11],1.31 logCFU/thigh
same,Average Change logCFU/thigh,[3]; [12],1.08 logCFU/thigh
same,Average Change logCFU/thigh,[3]; [13],−0.42 logCFU/thigh
same,Average Change logCFU/thigh,[3]; [14],−0.62 logCFU/thigh
same,Average Change logCFU/thigh,[3]; [15],−0.77 logCFU/thigh
